Several values for one entry are separate records, joined by “and”; a condition that tells them apart may be missing. Equal values may be shown once.
Legend:
[1] = test system: BCBL1 lymphoma (KSHV); test: [125I]FIAU imaging and tissue distribution, BCBL1 xenograft; assay type: in vivo, SCID mice
Excerpt: (§1) The approach observed in EBV-associated tumors is also applicable to other KSHV-associated tumors as shown in studies on two primary effusion lymphoma (PEL) cell lines that harbor KSHV. […] Finally, when induction with bortezomib was followed by treatment with [^131I]FIAU tumors regressed (FIG. 19C).

[2] = test system: TK143b osteosarcoma (constitutive EBV TK); test: [125I]FIAU imaging and tissue distribution, TK143b tumors
[3] = test system: Rael Burkitt's lymphoma (EBV); test: [125I]FIAU imaging and tissue distribution, Rael xenografts; assay type: in vivo, SCID mice
Procedure: Bortezomib was always administered 24 hours before [^125I]FIAU, also intravenously. […] 2 μg/g of bortezomib stimulated the maximum target to non-target signal ratio at 96 hours after treatment in this cell line. The radioactivity depicted by the arrow in FIG. 14B at the 96 hour time point was within the tumor as shown by concurrent ex vivo gamma counting. Similar results were obtained in animals bearing another EBV(+) Burkitt cell line (Rael) xenograft. […] The percentage of injected dose per gram (% ID/g) derived from the images was 1.13±0.01 and 0.70±0.01 at 72 and 96 hours, respectively. Only one mouse was imaged with SPECT-CT, so the standard deviation (SD) values were derived from the multiple slices of each image.

[4] = test system: EBV(+) Burkitt's lymphoma xenografts (Akata); test: [125I]FIAU imaging and ex vivo biodistribution, EBV(+) Akata xenografts; assay type: in vivo, SCID mice; conditions: for % ID/g derived from SPECT-CT images, tumor: bortezomib 2 μg/g, one mouse, SD from slices; for % ID/g ± SD, Blood / % ID/g ± SD, Kidney / % ID/g ± SD, Liver / % ID/g ± SD, Muscle / % ID/g ± SD, Spleen / % ID/g ± SD, Tumor: n = 4
Procedure: 5×10^6 cells were resuspended in 200 μL Matrigel Matrix (ED Biosciences, Bedford, Mass.) and injected subcutaneously near the shoulder of 6-7-week-old male severe combined immunodeficient (SCID) mice.
All work was undertaken in accordance with the regulations of Johns Hopkins Animal Care and Use Committee. Adult male SCID mice (5-6 weeks old) were purchased from the National Cancer Institute (Frederick, Md.). Three days before imaging, all mice received 1 mL intraperitoneal (i.p.) injections of 0.9% NaI solution daily for 3 consecutive days to block the thyroid uptake of free radioiodide. Twenty four hours prior to [^125I]FIAU injection, lytic induction was initiated with bortezomib. Each mouse was injected i.p. with a dose of 2 μg/g of bortezomib. Bortezomib was made fresh in PBS and filter sterilized with a 0.2 μm syringe filter (Millipore, Billerica, Mass.) immediately before each injection. Control mice were injected i.p. with PBS alone. On the day of radiotracer injection, the animals were anesthetized with 2.3 mL/kg of a mixture of 25 mg/mL ketamine and 2 mg/mL acepromazine in 0.9% saline injected i.p. Isoflurane (0.5%-1% at 0.5-1 L/minute) was administered to maintain anesthesia.
Four mice were sacrificed at each indicated time by cervical dislocation. Tumor, liver, spleen, kidney, fat, blood, and muscle were removed and weighed after which the tissue radioactivity was measured using an automated gamma counter. A 0.1 mL sample of blood was also collected. […] The standard deviation (SD) was also calculated.
(§2) Quantitative data were not derived from the images except for once instance that employed SPECT-CT (see below). […] The detector material or scintillator crystal is composed of NaI[Tl], which has a pixel size 2 mm×2 mm×6 mm. […] The static acquisition protocol of the LumaGEM™ software provided with the X-SPECT was used.

[5] = test system: EBV(−) osteosarcoma xenografts (V143b); test: [125I]FIAU imaging, V143b control tumors; assay type: in vivo, mice; conditions: with or without bortezomib
Excerpt: as §2

[6] = test system: KT gastric cancer (EBV); test: [125I]FIAU imaging and tissue distribution, KT xenograft
[7] = test system: BC3 lymphoma (KSHV); test: [125I]FIAU imaging and tissue distribution, BC3 xenograft; assay type: in vivo, SCID mice
Excerpt: as §1

[8] = test system: KSHV(+) primary effusion lymphoma (BCBL1); test: tumor growth, KSHV(+) primary effusion lymphoma (BCBL1) xenograft; assay type: in vivo, SCID mice; conditions: bortezomib induction followed by [131I]FIAU
Excerpt: as §1

[9] = test system: EBV(+) gastric adenocarcinoma (KT); test: tumor growth, EBV(+) gastric adenocarcinoma (KT) xenograft; conditions: bortezomib induction followed by [131I]FIAU
Procedure: Bortezomib was administered intravenously at 1.67 μg/gram. […] For imaging or treatment, FIAU was administered 24 hours after bortezomib. In each of the experiments described bortezomib was administered as a single dose.

[10] = test system: EBV(+) Burkitt's lymphoma cell line (Akata); test: tumor growth, EBV(+) Burkitt's lymphoma (Akata) xenografts; assay type: in vivo, SCID mice; conditions: bortezomib followed by [131I]FIAU; second cell line
Procedure: (§3) Therefore, an evaluation of a therapeutic isotope was carried out. As described above, SCID mice engrafted with EBV Burkitt's lymphoma xenografts received either buffer or bortezomib followed the next day by treatment with [^131I]FIAU or no treatment. […] Thus, bortezomib allowed targeting of [^131I]FIAU with therapeutic effect. Other proteasome inhibitors are also likely to be active. Several are in clinical trial.

[11] = test system: human osteosarcoma 143B cells expressing EBV TK; test: tumor growth, EBV-TK expressing 143B tumors; assay type: in vivo, mice
Procedure: To determine whether EBV-TK mediated concentration of radioisotope in tumor tissue was adequate to achieve a therapeutic effect, mice with tumors were treated with [^131I]FIAU or buffered saline (FIG. 18A-18C).
(§4) Biostatistics. Linear regression and curve fitting were undertaken carried using GraphPad Prism software version 5.00 for Windows, GraphPad Software, San Diego Calif. USA, www.graphpad.com.

[12] = scale-up of mouse biodistribution data to the human, MIRD dosimetry (OLINDA)
Excerpt: Murine biodistribution data were converted to equivalent human data for dosimetry by assuming that the organ or tumor to whole-body concentration ratio in the mouse is equivalent to that in the human.
The initial (i.e., 2-h) activity concentration in the mouse tumor of 1.95% ID/g becomes 7×10^−4% ID/g, assuming a 1 gm tumor in the human. At this concentration, and assuming negligible biological clearance of ^131I, as shown in the biodistribution data, the absorbed dose per administered activity to a 1 gm tumor in a 70 kg human is 0.1 mGy/MBq (0.38 rad/mCi). […] The 5 to 20 GBq (135 to 540 mCi) required to deliver this dose-range is well within normal organ tolerance given the normal organ absorbed dose estimates listed in the table. A total administered activity of 20 GBq would result in 0.2 and 0.02 Gy to the kidneys and red marrow, respectively. Based on external beam and radiopeptide experience, the kidneys can tolerate 25 to 27 Gy before the onset of toxicity; the red marrow maximally tolerated dose is 2 Gy. Administration of a 540 mCi dose would likely present logistical problems, but these could be accommodated by fractioning the administration over three to four injections.

[13] = test system: EBV(+) Burkitt's lymphoma (Rael); test: tumor growth, EBV(+) Burkitt's lymphoma (Rael) xenografts; assay type: in vivo, SCID mice
Procedure: as §3, §4

[14] = bortezomib induction, 4 days p.i., 5 μCi, N 5
[15] = TK143b, constitutive EBV TK, 4 days p.i., 5 μCi, N 3
[16] = Rael, bortezomib induction, 4 days p.i., 5 μCi, N 4
[17] = KT, bortezomib induction, 4 days p.i., 5 μCi, N 3
[18] = bortezomib induction, 5 days p.i., 5 μCi, N 3
[19] = total administered activity of 20 GBq

O=c1[nH]c(=O)n([C@@H]2O[C@H](CO)[C@@H](O)[C@@H]2F)cc1[125I] [[^125I]FIAU, [^125I]2-fluoro-2′-deoxy-beta-D-5-iodouracil-arabinofuranoside]
range of uptake as % ID/g (color bar), SPECT-CT ([1]; 48 hours p.i., following bortezomib): 1.53 % ID/g
tumor imaging ([1]; after bortezomib): allowed imaging
% ID/g ± SD, Kidney [1, 14]: 0.167 ± 0.038 % ID/g
% ID/g ± SD, Liver [1, 14]: 0.0617 ± 0.022 % ID/g
% ID/g ± SD, Muscle [1, 14]: 0.078 ± 0.005 % ID/g
% ID/g ± SD, Spleen [1, 14]: 0.064 ± 0.014 % ID/g
% ID/g ± SD, Tumor [1, 14]: 1.100 ± 0.361 % ID/g
initial activity concentration in the mouse tumor ([2]; 2-h): 1.95 % ID/g
tumor to muscle ratio ([2]; 2 hours post-infusion): 4.6
tumor to muscle ratio ([2]; 24 hours post-infusion (peak)): 205
tumor to muscle ratio ([2]; 96 hours post-infusion): 114
% ID/g ± SD, Kidney [2, 15]: 0.033 ± 0.058 % ID/g
% ID/g ± SD, Liver [2, 15]: 0.013 ± 0.006 % ID/g
% ID/g ± SD, Muscle [2, 15]: 0.015 ± 0.014 % ID/g
% ID/g ± SD, Spleen [2, 15]: 0.027 ± 0.015 % ID/g
% ID/g ± SD, Tumor [2, 15]: 1.667 ± 0.681 % ID/g
tumor imaging ([2]; cell line engineered to express constitutively the EBV-TK): readily imaged
radioactivity levels in the tumor ([2]; from 2 hours until last time point at 96 hours): remained constant
% ID/g ± SD, Kidney [3, 16]: 0.146 ± .054 % ID/g
% ID/g ± SD, Liver [3, 16]: 0.052 ± .027 % ID/g
% ID/g ± SD, Muscle [3, 16]: 0.084 ± .012 % ID/g
% ID/g ± SD, Spleen [3, 16]: 0.064 ± .011 % ID/g
% ID/g ± SD, Tumor [3, 16]: 1.200 ± 0.356 % ID/g
tumor visualization ([3]; following bortezomib, by 30 hours after radiopharmaceutical injection): clearly visualized
% ID/g derived from SPECT-CT images, tumor ([4]; 72 hours after radiopharmaceutical): 1.13±0.01 % ID/g
increase of tumor uptake over baseline after bortezomib ([4]; 96 h, bortezomib vs PBS): ~22 fold
% ID/g derived from SPECT-CT images, tumor ([4]; 96 hours after radiopharmaceutical): 0.70±0.01 % ID/g
% ID/g ± SD, Blood ([4]; Bortezomib treatment, 96 h): 0.022 ± 0.010 % ID/g
% ID/g ± SD, Kidney ([4]; Bortezomib treatment, 96 h): 0.070 ± 0.010 % ID/g
% ID/g ± SD, Liver ([4]; Bortezomib treatment, 96 h): 0.016 ± 0.002 % ID/g
% ID/g ± SD, Muscle ([4]; Bortezomib treatment, 96 h): 0.040 ± 0.005 % ID/g
% ID/g ± SD, Spleen ([4]; Bortezomib treatment, 96 h): 0.060 ± 0.011 % ID/g
% ID/g ± SD, Tumor ([4]; Bortezomib treatment, 96 h): 0.85 % ID/g and 0.850 ± 0.102 % ID/g
% ID/g ± SD, Blood ([4]; PBS treatment, 96 h): 0.033 ± 0.009 % ID/g
% ID/g ± SD, Kidney ([4]; PBS treatment, 96 h): 0.068 ± 0.014 % ID/g
% ID/g ± SD, Liver ([4]; PBS treatment, 96 h): 0.029 ± 0.011 % ID/g
% ID/g ± SD, Muscle ([4]; PBS treatment, 96 h): 0.030 ± 0.010 % ID/g
% ID/g ± SD, Spleen ([4]; PBS treatment, 96 h): 0.014 ± 0.006 % ID/g
% ID/g ± SD, Tumor ([4]; PBS treatment, 96 h): 0.039 % ID/g and 0.039 ± 0.010 % ID/g
tumor visualization, planar gamma imaging ([4]; bortezomib 2 μg/g 24 hours before, 4 days postinjection): clearly visible
time of peak tumor uptake ([4]; postinjection, pretreated with bortezomib): 96 h
tumor uptake, planar gamma imaging ([4]; pretreated with PBS only): no tumor uptake was evident
tumor uptake on imaging [5]: No tumor uptake was evident
range of uptake as % ID/g (color bar), SPECT-CT ([6]; KT tumor, 72 hours p.i., following bortezomib): 0.68 % ID/g
% ID/g ± SD, Kidney [6, 17]: 0.090 ± 0.030 % ID/g
% ID/g ± SD, Liver [6, 17]: 0.050 ± 0.017 % ID/g
% ID/g ± SD, Muscle [6, 17]: 0.080 ± 0.062 % ID/g
% ID/g ± SD, Spleen [6, 17]: 0.080 ± 0.035 % ID/g
% ID/g ± SD, Tumor [6, 17]: 0.598 ± 0.472 % ID/g
tumor imaging ([7]; after bortezomib): allowed imaging
% ID/g ± SD, Kidney [7, 18]: 0.027 ± 0.003 % ID/g
% ID/g ± SD, Liver [7, 18]: 0.009 ± 0.002 % ID/g
% ID/g ± SD, Muscle [7, 18]: 0.008 ± 0.004 % ID/g
% ID/g ± SD, Spleen [7, 18]: 0.008 ± 0.002 % ID/g
% ID/g ± SD, Tumor [7, 18]: 1.213 ± 0.214 % ID/g

O=c1[nH]c(=O)n([C@@H]2O[C@H](CO)[C@@H](O)[C@@H]2F)cc1[131I] [[^131I]FIAU]
tumor growth [8]: regressed
tumor growth rate [9]: diminished
tumor growth [10]: parallel results
tumor growth rate in chimeric tumors ([11]; 10% of tumor cells harbor the EBV-TK, 1.7 mCi): substantially slowed
tumor growth dose response ([11]; EBV-TK expressing tumors, 1 mCi or 3 mCi): increasing effects on tumor growth
tumor growth slope ([11]; TK tumors, 1.6 mCi IV): flattened
tumor activity concentration scaled to the human ([12]; assuming a 1 gm tumor in the human): 7×10^−4 % ID/g
absorbed dose to the kidneys [12, 19]: 0.2 Gy
absorbed dose to the red marrow [12, 19]: 0.02 Gy
tumor growth ([13]; bortezomib followed 24 hours later by [131I]FIAU): stopped tumor growth
tumor growth curves vs buffer alone ([13]; buffer followed by [131I]FIAU): similar
